Laboratory results taken from ChEMBL document CHEMBL1201862, “PubChem BioAssay data set” (2004).
Calls of active or inactive are those of the source.

What was measured:
[1] = mouse fibroblast viability loss – cell-based, cherry-pick samples, set 2, cytotoxicity control for T. cruzi growth inhibitor project, dose response (AID 651817); assay type: functional; details: NIH3T3
[2] = target: Fructose-bisphosphate aldolase (Mycobacterium tuberculosis, UniProt P9WQA3); assay: Fluorescence-based biochemical high throughput dose response assay for inhibitors of the fructose-bisphosphate aldolase (FBA) of M. tuberculosis.; assay type: functional
[3] = anti-trypanosomal activity in BESM host cells – imaging, CA-I/72 strain, bovine embryo skeletal muscle, dry powder, dose response (AID 651885); assay type: functional, cell-based
cells [4] = assay type: functional, cell-based
[5] = target: T1, Trace amine-associated receptor 1 (Homo sapiens, UniProt Q96RJ0); assay: Counterscreen for agonists of the human trace amine associated receptor 1 (hTAAR1): Fluorescence-based cell-based high throughput dose response assay to identify hTAAR1 agonist that also desensitize TAAR1 receptor response.; assay type: functional
T1 sequence (Q96RJ0 whole entry): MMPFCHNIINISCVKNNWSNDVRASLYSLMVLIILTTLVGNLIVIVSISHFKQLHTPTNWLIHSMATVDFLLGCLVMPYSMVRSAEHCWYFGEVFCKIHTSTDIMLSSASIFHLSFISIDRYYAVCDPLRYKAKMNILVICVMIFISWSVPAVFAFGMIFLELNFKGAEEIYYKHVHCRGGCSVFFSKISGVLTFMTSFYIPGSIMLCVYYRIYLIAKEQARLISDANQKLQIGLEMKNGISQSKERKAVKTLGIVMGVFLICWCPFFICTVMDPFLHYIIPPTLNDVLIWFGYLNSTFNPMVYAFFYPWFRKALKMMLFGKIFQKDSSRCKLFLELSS

cells [6] = assay type: functional, cell-based; remark: listed apart in the source
[7] = target: T1, Trace amine-associated receptor 1; assay: Fluorescence-based cell-based high throughput dose response assay to identify agonists of the human trace amine associated receptor 1 (TAAR1).; assay type: functional
[8] = Luminescence Cell-Based Dose Confirmation HTS to Identify Activators of 5'UTR Stem-Loop Driven Alpha-Synuclein mRNA Translation in H4 Neuroglioblastoma Cells. [Related pubchem assays: 1829 (Project Summary), 1814 (Primary HTS)]; assay type: functional
INS1 = assay: INS-1E survival protection against cytokine death – cell-based, luminescence, retest, dose response (AID 449756); assay type: functional; details: Rattus norvegicus;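 further: cell death triggered by IL-1 beta plus TNF-alpha plus IFN-gamma mixture; protective hits raise ATP signal compared with cytokine alone wells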
H4 = assay: Luminescence Cell-Based Dose Response HTS to Identify Activators of 5'UTR Stem-Loop Driven Prion Protein mRNA Translation in H4 Neuroglioblastoma Cells. [Related pubchem assays: 1829 (Project Summary), 1814 (Primary HTS)]; assay type: functional; details: Homo sapiens
Interleukin-8 [9] = target: T2, Interleukin-8 (Homo sapiens, UniProt P10145); assay: Dose Response confirmation of uHTS small molecule hits for cystic fibrosis induced NFkb Inhibitors in a TNFa-induced IL8 counterscreen.; assay type: functional; details: read-out: IC50_Mean
T2 sequence (P10145 whole entry): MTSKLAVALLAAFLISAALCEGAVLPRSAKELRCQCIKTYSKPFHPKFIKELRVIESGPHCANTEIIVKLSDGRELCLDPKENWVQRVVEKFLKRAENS

[10] = non-specific 3'UTR reporter inhibition in Clone20-Shn3RL – cell-based, Renilla luciferase, cherry-picked, counter-screen for Shn3 inhibitor project, dose response (AID 624133); assay type: functional
[11] = loss of viability in HepG2 cells – cell-based, CellTiter-Glo, cherry-picked, cytotoxicity control for Shn3 inhibitor project, dose response (AID 624134); assay type: functional
Vero [12] = assay: cells; assay type: functional, cell-based; details: Chlorocebus sabaeus
[13] = reduction of Shn3 3'UTR-driven luciferase in osteoblasts – cell-based, Clone20 osteoblasts, firefly luciferase, cherry-picked, dose response (AID 624132); assay type: functional;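 further: firefly luciferase luminescence from reporter carrying the Shn3 3'UTR in osteoblasts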
Vero [14] = assay: cells; assay type: functional; details: Chlorocebus sabaeus
Interleukin-8 [15] = target: T2, Interleukin-8; assay: Dose Response confirmation of uHTS small molecule hits for cystic fibrosis induced NFkb Inhibitors in a PAF-induced IL8 counterscreen.; assay type: functional; details: read-out: IC50_Mean
[16] = Luminescence Cell-Based Dose Response HTS to Identify Activators of Luciferase Translation or Activity in H4 […] Cells. [Related pubchem assays: 1829 (Project Summary), 1814 (Primary HTS)]; assay type: functional
Protein RecA = target: T3, Protein RecA (Mycobacterium tuberculosis, UniProt P9WHJ3); assay: Fluorescence Cell-Free Homogeneous Dose Retest to Identify Inhibitors of RecA-Intein Splicing Activity. [Related pubchem assays (depositor defined):AID2097, AID2223, AID489010, AID492950]; assay type: functional
T3 sequence (P9WHJ3 whole entry): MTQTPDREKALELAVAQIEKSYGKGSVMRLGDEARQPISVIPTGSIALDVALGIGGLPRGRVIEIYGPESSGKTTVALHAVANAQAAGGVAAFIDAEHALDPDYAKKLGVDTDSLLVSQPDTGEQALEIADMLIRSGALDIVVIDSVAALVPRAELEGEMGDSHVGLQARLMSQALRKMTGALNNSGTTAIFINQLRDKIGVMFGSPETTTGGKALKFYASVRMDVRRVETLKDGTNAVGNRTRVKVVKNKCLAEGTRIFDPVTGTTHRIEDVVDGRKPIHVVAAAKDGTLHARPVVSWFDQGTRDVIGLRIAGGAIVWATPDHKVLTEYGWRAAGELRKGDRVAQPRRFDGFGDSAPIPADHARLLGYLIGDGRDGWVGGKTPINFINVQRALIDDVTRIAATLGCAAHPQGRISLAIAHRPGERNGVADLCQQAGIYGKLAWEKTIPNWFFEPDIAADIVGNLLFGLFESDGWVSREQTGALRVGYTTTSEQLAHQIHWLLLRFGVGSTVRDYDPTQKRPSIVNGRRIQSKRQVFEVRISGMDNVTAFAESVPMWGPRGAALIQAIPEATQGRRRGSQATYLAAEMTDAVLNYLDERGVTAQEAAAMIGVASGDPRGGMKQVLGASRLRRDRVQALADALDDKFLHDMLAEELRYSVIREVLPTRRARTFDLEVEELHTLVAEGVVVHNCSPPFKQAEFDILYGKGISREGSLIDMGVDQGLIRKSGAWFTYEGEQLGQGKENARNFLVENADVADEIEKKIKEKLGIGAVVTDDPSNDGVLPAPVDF

[17] = viability loss in HeLa cells – cytotoxicity control for MgcRacGAP inhibitor project, dose response (AID 624300); assay type: functional
[18] = target: T4, Rac GTPase-activating protein 1 (Homo sapiens, UniProt Q9H0H5); assay: blockers of MgcRacGAP-driven Rac1 GTP hydrolysis – biochemical, ADP Hunter fluorescence, primary and confirmatory, confirmation (AID 624330); assay type: functional
T4 sequence (Q9H0H5 whole entry): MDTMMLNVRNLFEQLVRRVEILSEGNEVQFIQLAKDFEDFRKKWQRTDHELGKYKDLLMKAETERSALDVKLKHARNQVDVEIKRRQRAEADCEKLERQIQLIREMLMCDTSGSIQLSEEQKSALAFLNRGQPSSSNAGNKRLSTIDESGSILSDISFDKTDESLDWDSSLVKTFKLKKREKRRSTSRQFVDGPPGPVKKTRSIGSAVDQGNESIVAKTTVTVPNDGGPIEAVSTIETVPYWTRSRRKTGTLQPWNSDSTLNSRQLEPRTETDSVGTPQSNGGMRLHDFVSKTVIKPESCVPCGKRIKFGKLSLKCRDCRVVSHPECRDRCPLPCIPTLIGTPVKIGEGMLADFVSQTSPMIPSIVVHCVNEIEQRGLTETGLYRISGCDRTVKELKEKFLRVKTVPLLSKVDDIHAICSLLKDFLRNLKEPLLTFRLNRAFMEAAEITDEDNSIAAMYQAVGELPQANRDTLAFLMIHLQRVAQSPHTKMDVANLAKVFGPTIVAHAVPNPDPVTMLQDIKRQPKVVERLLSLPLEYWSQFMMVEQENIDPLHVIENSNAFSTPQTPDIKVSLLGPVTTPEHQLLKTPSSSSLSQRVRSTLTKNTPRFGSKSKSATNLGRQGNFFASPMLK

[19] = target: T5, Replicative DNA helicase DnaB (Mycobacterium tuberculosis, UniProt P9WMR3); assay: DnaB intein splicing inhibitors, dose response, biochemical, cell-free fluorescence (AID 449749); assay type: functional
T5 sequence (P9WMR3 whole entry): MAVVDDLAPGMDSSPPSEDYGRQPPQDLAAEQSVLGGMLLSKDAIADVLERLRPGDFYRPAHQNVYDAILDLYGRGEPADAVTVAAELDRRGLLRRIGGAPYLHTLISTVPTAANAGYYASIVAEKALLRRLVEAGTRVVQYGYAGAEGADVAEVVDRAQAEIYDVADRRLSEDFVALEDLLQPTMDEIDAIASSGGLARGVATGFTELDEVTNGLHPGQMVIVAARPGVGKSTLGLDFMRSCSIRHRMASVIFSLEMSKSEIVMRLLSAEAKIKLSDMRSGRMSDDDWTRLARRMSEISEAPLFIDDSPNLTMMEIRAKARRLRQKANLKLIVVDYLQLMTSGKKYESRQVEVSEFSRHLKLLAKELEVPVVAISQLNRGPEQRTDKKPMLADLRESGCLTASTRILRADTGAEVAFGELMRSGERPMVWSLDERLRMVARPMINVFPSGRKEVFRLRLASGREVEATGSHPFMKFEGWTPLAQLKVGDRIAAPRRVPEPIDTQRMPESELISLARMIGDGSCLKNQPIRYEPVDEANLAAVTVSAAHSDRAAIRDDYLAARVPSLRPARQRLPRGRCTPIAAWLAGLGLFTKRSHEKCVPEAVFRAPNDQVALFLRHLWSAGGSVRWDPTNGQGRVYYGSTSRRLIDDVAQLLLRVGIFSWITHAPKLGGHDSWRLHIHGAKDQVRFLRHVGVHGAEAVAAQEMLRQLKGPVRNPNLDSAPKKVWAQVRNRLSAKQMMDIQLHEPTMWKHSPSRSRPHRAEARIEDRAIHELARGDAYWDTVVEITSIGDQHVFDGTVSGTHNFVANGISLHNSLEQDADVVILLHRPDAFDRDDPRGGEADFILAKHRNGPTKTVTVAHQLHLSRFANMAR

[20] = target: Dual specificity tyrosine-phosphorylation-regulated kinase 1A (Rattus norvegicus, UniProt Q63470); assay type: biochemical, Homo sapiens
Cytochrome P450 2C9 = Cytochrome P450 2C9 (Homo sapiens, UniProt P11712)
Cytochrome P450 2C19 = Cytochrome P450 2C19 (Homo sapiens, UniProt P33261); assay: Cytochrome panel assay with activity outcomes. Panel member name: p450-cyp2c19 Compounds with AC50 equal or less than 10 uM are considered active; assay type: functional; details: read-out: AC50
cells [21] = assay type: functional, cell-based; remark: listed apart in the source
[22] = target: T6, Nuclear receptor subfamily 0 group B member 1 (Homo sapiens, UniProt P51843); assay type: functional, cell-based;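 further: HEK293T cells transfected with SF-1 and DAX-1 plus StAR promoter luciferase reporter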
T6 sequence (P51843 whole entry): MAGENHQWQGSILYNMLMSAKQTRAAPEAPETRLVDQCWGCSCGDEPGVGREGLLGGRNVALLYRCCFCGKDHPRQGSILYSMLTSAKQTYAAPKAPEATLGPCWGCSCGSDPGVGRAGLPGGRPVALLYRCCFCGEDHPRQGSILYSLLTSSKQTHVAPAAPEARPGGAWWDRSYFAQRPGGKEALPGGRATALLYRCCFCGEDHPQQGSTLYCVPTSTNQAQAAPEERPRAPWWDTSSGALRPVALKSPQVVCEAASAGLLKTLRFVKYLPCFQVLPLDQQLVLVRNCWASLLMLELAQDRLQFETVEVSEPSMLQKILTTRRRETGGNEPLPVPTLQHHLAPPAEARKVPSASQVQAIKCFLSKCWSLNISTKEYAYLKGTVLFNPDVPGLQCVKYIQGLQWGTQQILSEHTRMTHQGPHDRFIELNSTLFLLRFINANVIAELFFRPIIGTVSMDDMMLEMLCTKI

[23] = target: FAD-linked sulfhydryl oxidase ALR (Homo sapiens, UniProt P55789); assay: ALR-catalysed DTT oxidation blockers – biochemical, H2O2 detection, luminescence, cherry-pick, dose response (AID 493248)
Sequence of FAD-linked sulfhydryl oxidase ALR (P55789 whole entry): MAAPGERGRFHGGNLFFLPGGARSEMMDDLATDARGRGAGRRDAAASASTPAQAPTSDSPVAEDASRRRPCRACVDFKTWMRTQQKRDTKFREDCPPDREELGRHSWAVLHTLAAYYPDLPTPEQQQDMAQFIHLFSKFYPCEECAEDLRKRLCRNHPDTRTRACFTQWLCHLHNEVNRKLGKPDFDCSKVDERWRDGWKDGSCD

Sequence of Fructose-bisphosphate aldolase (P9WQA3 whole entry): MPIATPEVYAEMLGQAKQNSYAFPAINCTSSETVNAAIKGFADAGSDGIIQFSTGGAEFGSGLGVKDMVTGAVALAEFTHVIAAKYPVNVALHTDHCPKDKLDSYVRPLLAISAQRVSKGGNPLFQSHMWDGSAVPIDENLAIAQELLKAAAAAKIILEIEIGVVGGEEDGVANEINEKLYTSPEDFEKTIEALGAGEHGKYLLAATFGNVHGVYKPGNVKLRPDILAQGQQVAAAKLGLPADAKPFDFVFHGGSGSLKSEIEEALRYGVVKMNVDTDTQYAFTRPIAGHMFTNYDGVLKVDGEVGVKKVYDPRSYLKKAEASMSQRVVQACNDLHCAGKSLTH
Sequence of Cytochrome P450 2C19 (P33261 whole entry): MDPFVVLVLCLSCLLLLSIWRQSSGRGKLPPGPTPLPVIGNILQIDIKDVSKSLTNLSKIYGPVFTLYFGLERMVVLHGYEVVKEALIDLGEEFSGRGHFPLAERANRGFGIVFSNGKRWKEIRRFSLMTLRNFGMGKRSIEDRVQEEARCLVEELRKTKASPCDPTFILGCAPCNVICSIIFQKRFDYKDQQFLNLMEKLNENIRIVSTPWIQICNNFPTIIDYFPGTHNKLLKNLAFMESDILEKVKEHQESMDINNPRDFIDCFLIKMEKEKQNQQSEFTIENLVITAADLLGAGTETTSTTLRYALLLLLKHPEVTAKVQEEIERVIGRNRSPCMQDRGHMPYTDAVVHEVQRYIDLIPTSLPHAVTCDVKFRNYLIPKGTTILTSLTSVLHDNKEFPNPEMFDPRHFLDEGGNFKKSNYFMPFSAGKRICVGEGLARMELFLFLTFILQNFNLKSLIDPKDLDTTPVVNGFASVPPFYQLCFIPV
Sequence of Cytochrome P450 2C9 (P11712 whole entry): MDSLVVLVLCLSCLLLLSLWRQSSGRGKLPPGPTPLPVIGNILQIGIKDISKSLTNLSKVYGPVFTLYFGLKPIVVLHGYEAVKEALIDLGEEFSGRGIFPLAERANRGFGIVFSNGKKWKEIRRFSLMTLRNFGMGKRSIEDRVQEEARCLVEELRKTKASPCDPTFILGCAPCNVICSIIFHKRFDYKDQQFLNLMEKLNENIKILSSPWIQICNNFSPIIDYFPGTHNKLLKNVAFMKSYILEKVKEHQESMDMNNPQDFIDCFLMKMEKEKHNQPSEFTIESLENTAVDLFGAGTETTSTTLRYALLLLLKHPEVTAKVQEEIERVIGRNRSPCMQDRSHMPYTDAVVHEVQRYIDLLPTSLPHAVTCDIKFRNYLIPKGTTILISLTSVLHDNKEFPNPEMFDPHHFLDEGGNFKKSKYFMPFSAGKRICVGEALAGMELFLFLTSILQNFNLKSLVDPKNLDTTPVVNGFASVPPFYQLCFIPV

Cc1ccc(S(=O)(=O)Nc2ccc3c(c2)CC(=O)N([C@@H](C)CO)C[C@@H](C)[C@H](CN(C)Cc2ccccc2)O3)cc1
AC50 [1]: 39 µM (inactive)

CS(=O)(=O)NN1C(=O)c2ccccc2NC1c1ccccc1 (stereo unspecified)
IC50 [2]: > 1.11 µM (active)

CC(C)N1C[C@H](C)[C@@H](CN(C)Cc2ccccc2Cl)Oc2c(NC(=O)c3ccncc3)cccc2C1=O
IC50 [3]: 0.0201 µM (active)

Cc1cc(C(=O)COC(=O)C2=NNC(=O)CC2)c(C)n1CCc1ccccc1
IC50 (cells [4]): > 29.9 µM (inactive)
IC50 [5]: 7.2 µM (active)
EC50 (cells [6]): > 29.9 µM (inactive)
EC50 [7]: 1.58 µM (active)

O=C(N[C@@H](Cc1cccnc1)C(=O)N1CCC[C@H]1C(=O)NCCc1ccccc1Cl)c1ccc(Cl)c(Cl)c1
IC50 (cells [4]): > 29.9 µM (inactive)
IC50 [5]: 2.6 µM (active)
EC50 (cells [6]): > 29.9 µM (inactive)
EC50 [7]: 2.9 µM (active)

C[C@H]1CN([C@@H](C)CO)C(=O)Cc2cc(NS(=O)(=O)c3ccc(F)cc3)ccc2O[C@H]1CN(C)Cc1ccc(Cl)c(Cl)c1
AC50 [1]: 39 µM (inactive)

C=CCSc1nc2ccccc2n1C(=O)/C=C/c1ccc(OC)c(OC)c1
EC50 [8]: > 120 µM (not active)
AC50 (INS1): 8.85 µM (active)
EC50 (H4): > 120 µM (not active)
IC50 (Interleukin-8 [9]): > 79 µM (inactive)
AC50 [10]: 12.5 µM (active)
AC50 [11]: 49.4 µM (active)
IC50 (Vero [12]): > 25 µM (active)
AC50 [13]: 1.31 µM (active)
CC50 (Vero [14]): 9.91 µM (active)
IC50 (Interleukin-8 [15]): 0.685 µM (active)
EC50 [16]: > 120 µM (not active)

Oc1ccc(NC(=S)N=Nc2c(O)[nH]c3ccc(Br)cc23)cc1
EC50 (Protein RecA): 13.7 µM (active)
CC50 [17]: 61.5 µM (active)
IC50 [18]: 152 µM (active)
AC50 [19]: 12.1 µM (active)
AC50 [20]: 1.2 µM (active)

CCOC(=O)c1[nH]c2cc3c(cc2c1NC(=O)CN1CCc2ccccc2C1)OCO3
AC50 (Cytochrome P450 2C9): 7.94 µM (inconclusive)
IC50 [2]: 0.485 µM (active)
AC50 (Cytochrome P450 2C19): 2.24 µM (inconclusive)

Cc1ccc2c(Cl)c(C(=O)NC3CC3)sc2c1
IC50 (cells [21]): > 67.5 µM (inactive)
IC50 [22]: > 7.49 µM (active)

COc1c(O)cc2oc(-c3ccc(O)cc3)cc(=O)c2c1O [HISPIDULIN]
IC50 (cells [21]): > 67.5 µM (inactive)
IC50 [22]: > 0.834 µM (active)
AC50 [23]: 0.572 µM (active)
